Data published in US20160075689A1, “POLYMERASE, ENDONUCLEASE, AND HELICASE INHIBITORS AND METHODS OF USING THEREOF” (THE BOARD OF TRUSTEES OF THE UNIVERSITY OF ARKANSAS, priority 2013, published 2016).

Columns and labels:
EndoG = biological target: T1, EndoG (Homo sapiens, UniProt Q14249); experiment: Plasmid incision assay; type: biochemical; settings: agarose gel, FIG. 9
T1 sequence (Q14249 49-297): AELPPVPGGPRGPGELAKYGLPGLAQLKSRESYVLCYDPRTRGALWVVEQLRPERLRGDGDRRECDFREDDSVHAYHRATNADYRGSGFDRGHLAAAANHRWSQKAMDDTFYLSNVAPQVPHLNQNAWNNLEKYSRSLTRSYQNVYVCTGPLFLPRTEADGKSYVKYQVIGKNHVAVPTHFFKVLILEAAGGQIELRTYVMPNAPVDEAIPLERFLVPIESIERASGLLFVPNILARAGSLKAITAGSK
Description: A reaction mixture was prepared containing 0.5 μg pECFP plasmid DNA, 2 mM CaCl2, 5 mM MgCl2, 10 mM Tris-HCl, pH 7.4, 0.5 mM dithiothreitol. The test compound [50 ng in DMSO (1 μl)] was added. Recombinant EndoG was then added to the final concentration of 200 ng/ml and the reaction was incubated for 1 h at 37° C. The reaction was terminated by adding 2 μl of 10 mM Tris-HCl, pH 7.4, 1% SDS, 25 mM EDTA, 7.2 mM bromophenol blue. The samples were run in 1% agarose gel in Tris-acetate-EDTA buffer (40 mM Tris, 20 mM acetic acid, 1 mM EDTA, pH 8), at 7 V/cm for 35 min, and DNA was stained with ethidium bromide. An EagleEye scanning densitometer (Stratagene, La Jolla, Calif.) was utilized to quantify the relative amount of endonuclease-treated plasmid DNA present in a covalently-closed circular (supercoiled) DNA, open circular DNA, or linear DNA, or in a digested form.

DNase I = biological target: T2, DNase I (Homo sapiens, UniProt P24855); experiment: Endonuclease screening assay, specificity; type: biochemical
T2 sequence (P24855 23-282): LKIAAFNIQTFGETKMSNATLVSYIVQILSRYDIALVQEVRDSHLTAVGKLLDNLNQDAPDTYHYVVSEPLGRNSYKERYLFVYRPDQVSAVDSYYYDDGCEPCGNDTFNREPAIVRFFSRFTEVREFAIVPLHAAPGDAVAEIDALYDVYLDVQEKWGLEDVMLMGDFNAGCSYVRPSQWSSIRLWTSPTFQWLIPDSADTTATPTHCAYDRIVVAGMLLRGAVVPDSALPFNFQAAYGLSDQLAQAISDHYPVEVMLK
Source text: (§1) Specificity of a potential inhibitor is important for any in vitro or in vivo application, and generally defines the usefulness of an inhibitor. To determine specificity of the inhibitors for the two EndoG inhibitors, PNR-3-80 and PNR-3-82, their IC50 values for EndoG were compared using the screening assay with the IC50 values for two other endonucleases, DNase I and DNAse II (FIG. 11). These endonucleases were chosen because they represent the majority of endonuclease activity in most mammalian cells and because of their availability as pure enzymes.
(§2) A reaction mixture was prepared in each well of a white 96-well plate (Costar, Corning, N.Y.) as follows: 0.25 μM Cy5.5-labeled oligonucleotide (described in US provisional patent filed Oct. 19, 2012, Ser. No. 61/716,097) 0.3 mM MgCl2, 10 mM Tris-HCl, pH 7.4, 1 μl DMSO containing 5 or 50 ng of test compound, and nuclease-free water for a total reaction volume of 100 μl. The background (negative control) and uninhibited EndoG samples were measured using DMSO only, or DMSO containing recombinant EndoG (4 μg/ml), respectively. After addition of EndoG, fluorescence intensity was kinetically measured on a Bio-Tek Synergy 4.0 plate reader at 37° C. and mean velocity (mRFU/min) within 20 min was automatically calculated by the plate reader. The background was subtracted prior to the calculation of EndoG activity (%). The percent of EndoG activity was calculated from the mean velocity of a compound divided by the mean velocity of DMSO with recombinant EndoG, and the obtained value multiplied by 100.

DNase II = biological target: T3, DNase II (Homo sapiens, UniProt O00115); experiment: Endonuclease screening assay, specificity; type: biochemical
T3 sequence (O00115 19-360): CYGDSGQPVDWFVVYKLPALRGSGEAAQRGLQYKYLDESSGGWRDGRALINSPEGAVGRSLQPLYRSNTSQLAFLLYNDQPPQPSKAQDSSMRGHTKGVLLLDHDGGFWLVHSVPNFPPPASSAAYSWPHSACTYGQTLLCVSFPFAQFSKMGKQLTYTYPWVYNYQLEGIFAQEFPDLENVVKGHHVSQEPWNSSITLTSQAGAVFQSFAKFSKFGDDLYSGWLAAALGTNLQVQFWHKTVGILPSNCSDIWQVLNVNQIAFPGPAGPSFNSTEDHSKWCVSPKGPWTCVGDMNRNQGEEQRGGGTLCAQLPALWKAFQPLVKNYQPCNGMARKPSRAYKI
Source text: as §1, §2

NS3 helicase = biological target: T4, NS3 helicase (Hepatitis C virus genotype 1b, UniProt P26663); experiment: Gel-based helicase assay; type: biochemical, HCV; settings: standard helicase assay
T4 construct: analyze the helicase activity of NS3 helicase in the presence of the compounds; made in house
T4 sequence (P26663 1027-1657): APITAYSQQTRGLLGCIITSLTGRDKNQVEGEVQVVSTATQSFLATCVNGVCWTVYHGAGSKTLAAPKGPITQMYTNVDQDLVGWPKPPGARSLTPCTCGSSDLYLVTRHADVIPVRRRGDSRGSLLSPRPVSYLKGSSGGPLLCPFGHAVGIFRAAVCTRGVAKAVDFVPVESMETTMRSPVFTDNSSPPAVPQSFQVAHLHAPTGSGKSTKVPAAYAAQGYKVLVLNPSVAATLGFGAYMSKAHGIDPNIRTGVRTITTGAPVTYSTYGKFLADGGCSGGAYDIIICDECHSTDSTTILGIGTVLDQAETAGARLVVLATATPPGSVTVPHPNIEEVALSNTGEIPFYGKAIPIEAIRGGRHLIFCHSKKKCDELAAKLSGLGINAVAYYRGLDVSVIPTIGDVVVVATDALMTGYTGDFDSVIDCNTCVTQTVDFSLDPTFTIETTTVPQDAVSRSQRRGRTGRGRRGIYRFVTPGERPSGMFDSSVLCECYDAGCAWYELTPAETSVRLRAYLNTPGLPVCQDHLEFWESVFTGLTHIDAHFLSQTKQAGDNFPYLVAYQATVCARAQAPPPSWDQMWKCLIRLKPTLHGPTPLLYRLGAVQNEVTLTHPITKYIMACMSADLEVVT
Description: Benchtop unwinding assays were performed to analyze the helicase activity of NS3 helicase in the presence of the compounds. The unwinding reaction was initiated by mixing the right (N53, compound, assay buffer) and left (radiolabeled substrate, ATP, assay buffer) reactions, which was then quenched. The ssDNA product formed over time is separated from dsDNA substrate by 20% native PAGE. The ratio of dsDNA substrate to ssDNA product is quantified using ImageQuant and the fraction of substrate unwound at each time-point is plotted as a function of time using Kaleidagraph software.

protease = experiment: Protease activity in NRK-52E cell extract; type: biochemical; settings: 0.1 μM and 10 μM
Description: (§3) As a follow up to Example 8, the effects of the EndoG inhibitors PNR-3-80 and PNR-3-82, at 0.1 μM and 10 μM each, on the activities of four other enzymes including RNase A, protease, LDH, and SOD in NRK-52E cell extract were examined. NRK-52E cells were grown to ˜80% confluence in […]. The medium was aspirated and the cells were rinsed with ice cold 1×PBS, pH 7.4. The cells were lysed in 50 mM Tris-HCl, pH 7.4, 150 mM NaCl, 1% Triton X-100 for 10 min on ice and then briefly sonicated. Cell debris was removed by centrifugation at 13,000×g for 10 min at 4° C. The supernatant was collected and stored at −80° C. until use. LDH, Protease, Superoxide dismutase (SOD), and Ribonuclease A (RNase A) activities were measured by using CytoTox 96® Non-Radioactive Cytotoxicity Assay kit (Promega, Madison, Wis.), Protease Fluorescent Detection kit (Sigma-Aldrich, Saint Louis, Mo.), SOD determination kit (Sigma-Aldrich, Saint Louis, Mo.), and Ribonuclease A Detection kit (Sigma-Aldrich, Saint Louis, Mo.), respectively, according to the manufacturer's instructions.

SOD = SOD activity in NRK-52E cell extract; type: biochemical; settings: 0.1 μM and 10 μM
Description: as §3

In the case of `COc1ccc2c(c1)c(C=C1C(=O)NC(=S)NC1=O)cn2C(=O)c1ccc2ccccc2c1` [PNR-3-82], the “protection of supercoiled plasmid DNA from degradation by EndoG” value (EndoG) is reported as “significantly protected the plasmid DNA from degradation”, the IC50 (DNase I) is reported as 63.3 µM and the “effect on DNase II activity” value (DNase II) is reported as “did not have any effect”. The “NS3 helicase activity, gel electrophoresis” value (NS3 helicase) was “confirmed the inhibition”, the protease activity (protease) was “none of the two tested compounds had any inhibiting activity” and the SOD activity (SOD) was “none of the two tested compounds had any inhibiting activity”.
